Measured values as given in patent publication US6844353B2, “Fungicidal properties of sampangine and its analogs to agriculturally important fungal plant pathogens” (The United States of America as represented by the …, priority 2003, dated 2005).
Like-named read-outs stand apart in the source and are kept apart here.

What was measured:
[1] = tested on: C. fragariae isolate CF-75; experiment: Detached strawberry leaf assay; assay type: in vivo, Colletotrichum fragariae; conditions: detached strawberry leaves (cultivar Chandler), five days after application
Excerpt: Strawberry plants of the cultivar Chandler were maintained in a warm greenhouse under conditions suitable for optimum vegetative growth. The youngest fully expanded leaf with the entire petiole from each plant was collected. The petiole of each leaf was inserted into a small test tube (10×4 mm) and filled with sterile distilled water. The left leaflet of each leaf was inoculated with C. fragariae isolate CF-75 (1.5×10^6 conidia/ml) using a hand pump sprayer. The inoculated leaves were placed in a dew chamber and incubated overnight at 30° C. and 100% relative humidity, removed from the dew chamber and allowed to dry. The test compound was applied using a chromatography sprayer until the upper surface of each leaflet was coated. After allowing the leaves to air dry for 2 hours, the right leaflet of each leaf was inoculated with C. fragariae isolate CF-75. The leaves were incubated in the dew chamber at 30° C. and 100% relative humidity for 48 hours. The leaves were then removed from the dew chamber and held in a moist chamber for 3 days (total of five days since test compounds were applied). The number of lesions on each leaflet were then counted.

C. gloeosporioides = experiment: 96-well microtiter plate assay, fungal growth inhibition; assay type: cell-based, Colletotrichum gloeosporioides; conditions: Colletotrichum gloeosporioides, read-out: Percent inhibition−Percent Stimulation±SEM
Excerpt: (§1) Pathogen production. Isolates of Colletotrichum acutatum Simmonds, Colletotrichum fragariae Brooks, and Colletotrichum gloeosporioides (Penz.) Penz. & Sacc. in Penz. were obtained from B. J. Smith, USDA, ARS, Small Fruit Research Station, Poplarville, Miss. Colletotrichum fragariae (isolate CF63), C. acutatum (isolate CAGoff), and C. gloeosporioides (isolate CG162) were used for all pathogen and bioautography studies. Isolate CF63 is one of the most virulent isolates at infecting strawberry plants and inducing both crown and fruit rot (Smith and Black, 1990). CF63, CAGoff, and CG162 were used as standard test isolates because of our extensive knowledge of these isolates and their known fungicide sensitivity profiles in both bioautography and microtiter formats. The three Colletotrichum species were isolated from strawberry (Fragaria x ananassa Duchesne). Botrytis cinerea Pers.: Fr, was isolated from commercial grape (Vitis vinifera L.) and Fusarium oxysporum Schlechtend: Fr from orchid (Cynoches sp.). Phomopsis viticola (Sacc.) and P. obscurans (Ellis & Everh.) Sutton were from Mike A. Ellis, Ohio State University, Wooster, Ohio. Fungi were grown on potato-dextrose agar (PDA, Difco, Detroit, Mich.) in 9 cm petri dishes and incubated in a growth chamber at 24±2° C. and under cool-white fluorescent lights ([…]·m^−2·sec^−1 light) with 12 hour photoperiod.
(§2) Inoculum preparation. Conidia were harvested from 7-10 day-old cultures by flooding plates with 5 mL of sterile distilled water and dislodging conidia by softly brushing the colonies with an L-shaped glass rod. Conidial suspensions were filtered through sterile miracloth (Calbiochem-Novabiochem Corp., La Jolla, Calif.) to remove mycelia. Conidia concentrations were determined photometrically, from a standard curve based on the percent of transmittance (% T) at 625 nm and suspensions were then adjusted with sterile distilled water to a concentration of 1.0×10^6 conidia/mL.
(§3) Microtiter assay. A standardized 96-well microtiter plate assay developed for discovery of natural product fungicidal agents was used to evaluate naturally occurring antifungal agents from Macaranga monanara. A 96-well microtiter assay was used to determine sensitivity of B. cinerea, C. acutatum, C. fragariae, C. gloeosporioides, F. oxysporum, Phomopsis viticola, and P. obscurans to the various antifungal agents in comparison with known fungicidal standards. Vinclozolin, captan, and thiabendazole, which represent three different modes of action, were used as standards in this experiment. Each fungus was challenged in a dose-response format using test compounds where the final treatment concentrations were 0.3, 3.0 and 30.0 μM. Microtiter plates (Nunc MicroWell, untreated; Roskilde, Denmark) were covered with a plastic lid and incubated in a growth chamber as described previously for fungal growth. Growth was then evaluated by measuring absorbance of each well at 620 nm using a microplate photometer (Packard Spectra Count, Packard Instrument Co., Downers Grove, Ill.). Microtiter plates (Nunc MicroWell, untreated; Roskilde, Denmark) were covered with a plastic lid and incubated in a growth chamber at 24±1° C. and 12 hour photoperiod under 60±5 μmol light. Growth was then evaluated by measuring absorbance of each well at 620 nm using a microplate photometer (Packard Spectra Count, Packard Instrument Co., Downers Grove, Ill.).
(§4) Microbioassy Experimental Design. Chemical sensitivity each of B. cinerea, C. acutatum, C. fragariae, C. gloeosporiodes, F. oxysporum, Phomopsis viticola, and P. obscurans was evaluated using 96-well plate microbioassay format. Each chemical was evaluated in duplicate at each dose (0.3, 3.0 and 30.0 μM). […]

C. fragariae = experiment: as above; assay type: cell-based, Colletotrichum fragariae; conditions: Colletotrichum fragariae, read-out: Percent inhibition−Percent Stimulation±SEM
Excerpt: as §1, §2, §3, §4

B. cinerea = experiment: as above; assay type: cell-based, Botrytis cinerea; conditions: Botrytis cinerea, read-out: Percent inhibition−Percent Stimulation±SEM
Excerpt: as §1, §2, §3, §4

C. acutatum = experiment: as above; assay type: cell-based, Colletotrichum acutatum; conditions: Colletotrichum acutatum, read-out: Percent inhibition−Percent Stimulation±SEM
Excerpt: as §1, §2, §3, §4

F. oxysporum = experiment: as above; assay type: cell-based, Fusarium oxysporum; conditions: Fusarium oxysporum, read-out: Percent inhibition−Percent Stimulation±SEM
Excerpt: as §1, §2, §3, §4

SMILES: CO/C=C(/C(=O)OC)c1ccccc1Oc1cc(Oc2ccccc2C#N)ncn1 [Azoxystrobin]
- Disease severity scores (# disease lesions) ([1]; Concentration 625 (unit not given)): 4.46
- Disease severity scores (# disease lesions) ([1]; Concentration 1250 (unit not given)): 1.58
- Disease severity scores (# disease lesions) ([1]; Concentration 2500 (unit not given)): 3.54

SMILES: CC(C)NC(=O)N1CC(=O)N(c2cc(Cl)cc(Cl)c2)C1=O [Iprodione]
- inhibition at 0.3 µM (C. gloeosporioides; 48 h): -33.4 ± 10.1%
- inhibition at 3 µM (C. gloeosporioides; 48 h): -49.6 ± 8.4%
- inhibition at 30 µM (C. gloeosporioides; 48 h): 23.4 ± 9.1%
- inhibition at 0.3 µM (C. gloeosporioides; 72 h): -17.5 ± 6.7%
- inhibition at 3 µM (C. gloeosporioides; 72 h): -30.7 ± 4%
- inhibition at 30 µM (C. gloeosporioides; 72 h): -17.4 ± 7.9%
- inhibition at 0.3 µM (C. fragariae; 48 h): -36.4 ± 12.3%
- inhibition at 3 µM (C. fragariae; 48 h): -42.6 ± 10.4%
- inhibition at 30 µM (C. fragariae; 48 h): -63.2 ± 10.7%
- inhibition at 0.3 µM (C. fragariae; 72 h): -17.1 ± 3.6%
- inhibition at 3 µM (C. fragariae; 72 h): -24 ± 4.6%
- inhibition at 30 µM (C. fragariae; 72 h): -57.7 ± 12%
- inhibition at 0.3 µM (B. cinerea; 48 h): -10.4 ± 11.1%
- inhibition at 3 µM (B. cinerea; 48 h): 34.2 ± 29.1%
- inhibition at 30 µM (B. cinerea; 48 h): 38.1 ± 29.3%
- inhibition at 0.3 µM (B. cinerea; 72 h): 28.3 ± 27.9%
- inhibition at 3 µM (B. cinerea; 72 h): 43.3 ± 20.5%
- inhibition at 30 µM (B. cinerea; 72 h): 41.3 ± 20.6%
- inhibition at 0.3 µM (C. acutatum; 48 h): -26.4 ± 10.7%
- inhibition at 3 µM (C. acutatum; 48 h): -18.1 ± 3.2%
- inhibition at 30 µM (C. acutatum; 48 h): -27.9 ± 5.5%
- inhibition at 0.3 µM (C. acutatum; 72 h): -26.8 ± 9.9%
- inhibition at 3 µM (C. acutatum; 72 h): -10.7 ± 3.1%
- inhibition at 30 µM (C. acutatum; 72 h): -64.8 ± 4%
- inhibition at 0.3 µM (F. oxysporum; 48 h): 1.8 ± 2.6%
- inhibition at 3 µM (F. oxysporum; 48 h): 8.3 ± 3.1%
- inhibition at 30 µM (F. oxysporum; 48 h): 7.7 ± 4.6%
- inhibition at 0.3 µM (F. oxysporum; 72 h): -2.3 ± 3%
- inhibition at 3 µM (F. oxysporum; 72 h): -4.1 ± 4%
- inhibition at 30 µM (F. oxysporum; 72 h): -11.2 ± 5.3%
